Measurements from patent US12144886B2, “Perineural administration of resiniferatoxin for treatment of maladaptive pain” (Sorrento Therapeutics, Inc., priority 2018, dated 2024).

Test system: declawed cat with maladaptive pain
Test: Tolerance and safety of perineural RTX in a single declawed cat
Assay type: in vivo
Procedure: The safety of the injection of RTX is assessed by comparing the results of a complete blood count (CBC) and a chemistry panel done at screening with the results obtained at day 14. Cats were also monitored for adverse events.
Tolerance, safety, and analgesic effects of RTX administration were evaluated in a single declawed cat with maladaptive pain. […] The cat also presented a self-limiting decreased appetite for 12 hours post injection.

[1] = one cat, 2.5 μg/forelimb perineural

**Q.** Which Allergic-like reactions (one cat) does the source give for `C=C(C)[C@]12C[C@@H](C)[C@@]34O[C@](Cc5ccccc5)(O[C@@H]1[C@@H]3C=C(COC(=O)Cc1ccc(O)c(OC)c1)C[C@]1(O)C(=O)C(C)=C[C@@H]41)O2` [RTX, resiniferatoxin] here?
**A.** No signs of allergic-like reactions were observed

**Q.** And the “Edema or pain in the injected areas” value (one cat)?
**A.** no signs of edema or pain were present

**Q.** And the “Resolution of adverse events (panting, salivation)” value (one cat)?
**A.** resolved within two hours

**Q.** And the “Complications during RTX administration” value [1]?
**A.** No complications were observed

**Q.** What about the Tolerability of injection [1] of the same compound?
**A.** generally well tolerated

**Q.** And the Adverse events (one hour post-injection)?
**A.** panting and salivation

**Q.** What about the “Duration of self-limiting decreased appetite” value (post injection, one cat) of the same compound?
**A.** 12 h
